Assay results published in publication PMC10017709, “Structural basis of selective cannabinoid CB2 receptor activation” (Nature Communications, 2023).
Where “and” joins values, the source holds several entries; their conditions need not be identical. Equal values may be shown once.

What was measured:
[1] = test system: chronic abdominal pain associated with Crohn’s disease; conditions: 14 patients with chronic abdominal pain associated with Crohn’s disease; cited from earlier work
CB1R I267ECL2L = CB1R I267ECL2L (Homo sapiens, UniProt P21554, I267L); assay: [35S]GTPγS assay, CB1R I267L mutant; assay type: biochemical; conditions: CB1R I267L; 10 µM agonist
CB2R-V261^6.51L = CB2R-V261^6.51L (Homo sapiens, UniProt P34972, V261L); assay: [35S]GTPγS assay, CB2R V261L mutant; assay type: biochemical; conditions: for [35S]GTPγS binding: V2616.51L, individual replicates
hCB2R = target: T1, hCB2R (Homo sapiens, UniProt P34972); assay: [3H]RO6957022 displacement assay; assay type: binding; conditions: individual replicates
T1 construct: host or cells: CHO-K1 (CHOK1_hCB2bgal, PathHunter), membranes

CB2R-I110^3.29L [2] = target: T2, CB2R-I110^3.29L (Homo sapiens, UniProt P34972, I110L); assay: [3H]CP55,940 displacement assay, CB2R I110L mutant; assay type: binding; conditions: I1103.29L, individual replicates
CB2R-F117^3.36A = CB2R-F117^3.36A (Homo sapiens, UniProt P34972, F117A); assay: [35S]GTPγS assay, CB2R F117A mutant; assay type: biochemical
CB2R-I110^3.29L [3] = target: T2, CB2R-I110^3.29L; assay: [35S]GTPγS assay, CB2R I110L mutant; assay type: biochemical; conditions: for [35S]GTPγS binding: I1103.29L, individual replicates
CB2R-L182^ECL2I = CB2R-L182^ECL2I (Homo sapiens, UniProt P34972, L182I); assay: [35S]GTPγS assay, CB2R L182I mutant; assay type: biochemical; conditions: L182I mutant; at 10 µM compared to WT; read-out: Emax (%)
CB1R D266ECL2E = target: T3, CB1R D266ECL2E (Homo sapiens, UniProt P21554, D266E); assay: [3H]CP55,940 displacement assay, CB1R D266E mutant; assay type: binding
T3 construct: The WT CB1R and CB2R genes were subcloned into vector pcDNA3.1; HA signal peptide (N); expressed in transfected cells; host or cells: HEK293T (transient, membrane homogenates)
T3 sequence (P21554 whole entry D266E): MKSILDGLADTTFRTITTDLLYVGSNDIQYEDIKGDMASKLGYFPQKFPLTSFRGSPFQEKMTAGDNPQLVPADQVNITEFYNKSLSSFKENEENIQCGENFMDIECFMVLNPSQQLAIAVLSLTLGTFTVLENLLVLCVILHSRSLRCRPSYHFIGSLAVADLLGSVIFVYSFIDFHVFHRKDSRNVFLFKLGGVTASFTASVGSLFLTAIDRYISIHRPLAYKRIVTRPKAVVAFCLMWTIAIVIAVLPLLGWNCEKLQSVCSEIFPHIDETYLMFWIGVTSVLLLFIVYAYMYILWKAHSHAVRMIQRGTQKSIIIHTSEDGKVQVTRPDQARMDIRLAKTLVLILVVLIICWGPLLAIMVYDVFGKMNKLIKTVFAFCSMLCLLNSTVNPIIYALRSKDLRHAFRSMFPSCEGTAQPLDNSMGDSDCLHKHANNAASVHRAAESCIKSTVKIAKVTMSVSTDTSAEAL

T1 sequence (P34972 whole entry): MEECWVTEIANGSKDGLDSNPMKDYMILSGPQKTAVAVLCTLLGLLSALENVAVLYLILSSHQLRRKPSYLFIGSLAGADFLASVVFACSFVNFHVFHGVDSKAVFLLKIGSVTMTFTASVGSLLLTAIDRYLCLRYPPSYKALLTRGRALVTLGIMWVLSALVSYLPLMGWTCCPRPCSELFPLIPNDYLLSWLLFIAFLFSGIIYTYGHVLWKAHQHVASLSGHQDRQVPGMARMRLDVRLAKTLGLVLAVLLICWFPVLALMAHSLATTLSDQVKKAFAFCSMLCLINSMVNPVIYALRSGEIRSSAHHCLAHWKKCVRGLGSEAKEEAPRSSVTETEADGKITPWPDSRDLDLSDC
T2 sequence (P34972 whole entry I110L): as the sequence (P34972 whole entry) above, with I110L counted along it
Chain of CB2R-V261^6.51L (P34972 whole entry V261L): as the sequence (P34972 whole entry) above, with V261L counted along it
Chain of CB2R-F117^3.36A (P34972 whole entry F117A): as the sequence (P34972 whole entry) above, with F117A counted along it
Chain of CB2R-L182^ECL2I (P34972 whole entry L182I): as the sequence (P34972 whole entry) above, with L182I counted along it
Chain of CB1R I267ECL2L (P21554 whole entry I267L): as the sequence (P21554 whole entry D266E) above, with E266D, I267L counted along it

## CC(C)(C)[C@@H](CO)NC(=O)c1nn(-c2c[n+]([O-])ccn2)c2c1C[C@@H]1C[C@H]21 [APD371]
[1]
  abdominal pain scores: improvement
  adverse events: mild-to-moderate adverse events
CB1R I267ECL2L
  Agonist-mediated activation: 0.9 ± 0.0 fold over its basal
CB2R-V261^6.51L; V261L mutant vs WT, [35S]GTPγS
  drop in potency compared to WT: 10 fold
CB2R-V261^6.51L; V261L mutant, at 10 µM compared to WT, read-out: Emax (%)
  Emax: 6 ± 2%
CB2R-V261^6.51L; log [ligand] (M) -5
  [35S]GTPγS binding: 2.52 percentage of WT and 5.75 percentage of WT and 9.01 percentage of WT
CB2R-V261^6.51L; log [ligand] (M) -6
  [35S]GTPγS binding: -3.29 percentage of WT and 5.08 percentage of WT and 17.22 percentage of WT
CB2R-V261^6.51L; log [ligand] (M) -7
  [35S]GTPγS binding: 3.77 percentage of WT and -3.23 percentage of WT and 7.12 percentage of WT
CB2R-V261^6.51L; log [ligand] (M) -8
  [35S]GTPγS binding: -13.41 percentage of WT and -9.01 percentage of WT and -7.07 percentage of WT
CB2R-V261^6.51L; log [ligand] (M) -9
  [35S]GTPγS binding: -3.12 percentage of WT and -6.34 percentage of WT and -8.82 percentage of WT
CB2R-V261^6.51L; log [ligand] (M) -10
  [35S]GTPγS binding: 6.63 percentage of WT and -9.97 percentage of WT and -1.94 percentage of WT
hCB2R; log [agonist] (M) -5
  percentage specific [3H]RO6957022 binding (displacement): 6.59% and 5.28% and -3.87%
hCB2R; log [agonist] (M) -6
  percentage specific [3H]RO6957022 binding (displacement): 1.67% and 12.98% and 3.83%
hCB2R; log [agonist] (M) -7
  percentage specific [3H]RO6957022 binding (displacement): 44.82% and 59.70% and 42.04%
hCB2R; log [agonist] (M) -7.5
  percentage specific [3H]RO6957022 binding (displacement): 76.53% and 76.83% and 76.84%
hCB2R; log [agonist] (M) -8
  percentage specific [3H]RO6957022 binding (displacement): 102.92% and 92.08% and 89.96%
hCB2R; log [agonist] (M) -9
  percentage specific [3H]RO6957022 binding (displacement): 120.09% and 94.02% and 99.12%
CB2R-I110^3.29L [2]; log [ligand] (M) -5
  percentage specific [3H]CP55,940 binding: 4.49% and 2.95% and 7.70%
CB2R-I110^3.29L [2]; log [ligand] (M) -6
  percentage specific [3H]CP55,940 binding: 22.45% and 22.51% and 25.37%
CB2R-I110^3.29L [2]; log [ligand] (M) -7
  percentage specific [3H]CP55,940 binding: 63.92% and 66.51% and 68.51%
CB2R-I110^3.29L [2]; log [ligand] (M) -8
  percentage specific [3H]CP55,940 binding: 89.64% and 87.54% and 115.07%
CB2R-I110^3.29L [2]; log [ligand] (M) -9
  percentage specific [3H]CP55,940 binding: 93.11% and 90.99% and 98.90%
CB2R-I110^3.29L [2]; log [ligand] (M) -10
  percentage specific [3H]CP55,940 binding: 86.70% and 95.29% and 99.01%
CB2R-F117^3.36A; F117A mutant, at 10 µM compared to WT, read-out: Emax (%)
  Emax: 2 ± 6%
CB2R-F117^3.36A; F1173.36A, log [ligand] (M) -5, individual replicates
  [35S]GTPγS binding: -3.66 percentage of WT and 14.36 percentage of WT and -4.64 percentage of WT
CB2R-I110^3.29L [3]; I110L mutant, at 10 µM compared to WT, read-out: Emax (%)
  Emax: 101 ± 7%
CB2R-I110^3.29L [3]; log [ligand] (M) -5
  [35S]GTPγS binding: 88.75 percentage of WT and 114.10 percentage of WT and 98.70 percentage of WT
CB2R-I110^3.29L [3]; log [ligand] (M) -6
  [35S]GTPγS binding: 65.58 percentage of WT and 82.80 percentage of WT and 68.20 percentage of WT
CB2R-I110^3.29L [3]; log [ligand] (M) -7
  [35S]GTPγS binding: 37.92 percentage of WT and 48.30 percentage of WT and 43.20 percentage of WT
CB2R-I110^3.29L [3]; log [ligand] (M) -8
  [35S]GTPγS binding: 16.04 percentage of WT and -5.10 percentage of WT and 25.10 percentage of WT
CB2R-I110^3.29L [3]; log [ligand] (M) -9
  [35S]GTPγS binding: 37.59 percentage of WT and -1.70 percentage of WT and -8.60 percentage of WT
CB2R-I110^3.29L [3]; log [ligand] (M) -10
  [35S]GTPγS binding: -2.00 percentage of WT and -5.20 percentage of WT
CB2R-L182^ECL2I
  Emax: 17 ± 4%
CB1R D266ECL2E; CB1R D266E, 10 µM compound
  Displacement (%) of [3H]CP55,940: 12 ± 7%
CB1R D266ECL2E; CB1R D266ECL2E, 10 µM ligand, replicates 1-3
  percentage specific [3H]CP55,940 binding: 74.46 percentage and 89.45 percentage and 99.44 percentage
